2 molecules from paper PMC6928678, “Simplified Head-to-Tail Cyclic Polypeptides as Biomaterial-Associated Antimicrobials with Endotoxin Neutralizing and Anti-Inflammatory Capabilities” (International Journal of Molecular Sciences, 2019) can be followed below.

The test system of one data set is S. aureus 25923. Nature of the data set: microbe, parasite or virus in culture. Particulars: 25923, 20 h. The class given is cell-based, Staphylococcus aureus. The protocol: (§1) The test strains, including Gram-negative E. coli ATCC25922, E. coli ATCC 1005, S. typhimurium C7731, P. aeruginosa ATCC 27853, S. Typhimurium 14028, Gram-positive S. aureus ATCC29213, S. aureus ATCC 25923, S. epidermidis ATCC 12228 and S. aureus 43300, were obtained from the School of Veterinary Medicine, Northeast Agricultural University (Harbin, China).
(§2) Briefly, the bacteria were incubated overnight at 37 °C with constant shaking at 220 rpm, then were transferred to new MH broth (MHB) medium until they reached the logarithmic phase of growth. The bacteria were then diluted to 10^5 (CFU)/mL in MHB. The peptides were dissolved and diluted in 0.01% acetic acid and 0.2% bovine serum albumin (BSA) at various concentrations (0.5–128 μM) in each well of sterile 96-well plates and incubated for 20 h at 37 °C. […] The test was repeated three times.

A further data set relates to S. aureus 29213. Nature of the data set: microbe, parasite or virus in culture. It is filed as cell-based, Staphylococcus aureus. As to conditions: 29213, 20 h. The protocol:
as §1, §2

Data set [1] has as its system gram-negative strains tested. Nature of the data set: Geometric mean of MICs, gram-negative strains. As to conditions: 5 gram-negative strains; >128 apparently counted as 256; read-out: nGM (–), geometric mean of the MICs against gram-negative strains. It is filed as cell-based. The protocol: as §2
Another data set deals with RAW264.7 cells. Nature of the data set: MTT cytotoxicity assay. It is filed as cell-based, mouse. Particulars: 0.5–128 μM, 24 h. As to the method: Figure 2 (A) Hemolytic activity of the engineered peptides against human red blood cells (hRBCs). The hRBCs were incubated with equal amounts of the respective peptides dissolved in PBS for 1 h at 37 °C. (B) Cytotoxicity of the engineered peptides against RAW264.7. The cells were incubated with various concentrations (0.5–128 μM) of peptides for 24 h, and the cell viability was determined by the MTT assay. Data shown are three independent experiments.
The MTT (3-[4, 5 dimethylthiozol-2-yl]-2,5-diphenyltetrazolium bromide) assay was conducted according to a previously reported MTT colorimetric method, and is used as a cell proliferation and cell viability assay. Mouse macrophage RAW264.7 cell lines stored in liquid nitrogen were recovered and cultured in a fully humidified atmosphere with 95% air and 5% CO2 at 37 °C. The cells were then diluted, added to 96-well plates at a final concentration of 2 × 10^5 cells/well, and cultured in RPMI 1640 medium at 37 °C overnight. The next day, peptides were added to the cell cultures at final concentrations of 0.5–128 μM, and untreated cell cultures serving as controls were cultured for 20–24 h in the same conditions. […] 150 μL of DMSO was added to dissolve the formazan crystals, and the OD was measured using a microplate reader (Tecan GENios F129004, Salzburg, Austria) at 570 nm. […]
Background: Tetrazolium assays rely on reduction of a dye to a coloured formazan, in cell work by metabolically active cells.

The subject of data set [2] is lipopolysaccharide (LPS, derived from E. coli 055: B5). Nature of the data set: BODIPY-TR-cadaverine displacement assay (LPS binding). As to the method: Figure 3 (A) The combining ability of OIR3 and gramicidin S (GS; 0.5 μM, 1 μM, 2 μM, […], 8 μM, 16 μM and 32 μM) with lipopolysaccharide (LPS). (B) SPR spectroscopy of the interaction kinetics of the peptides and LPS. The peptides were immobilized on a CM5 sensor chip as a ligand, and LPS was diluted in a series of concentrations (3.125, 6.25, 12.5, 25 and 50 μg/mL). Data shown are three independent experiments.
The BODIPY-TR-cadaverine (BC) displacement assay was previously used to quantify the binding affinities of test compounds to LPS [61]. The fluorescent dye BC is quenched by binding to LPS, causing its fluorescence to disappear. When the antimicrobial peptide is added, if the binding of the peptide to LPS is stronger, BODIPY-TR-cadaverine will be released and the fluorescence restored. Briefly, in a 96-well plate, an equal volume with a different concentration (0.5–64 μM) of peptide was added to a mixture (100 μL) of LPS (25 μg/mL) and BC (2.5 μg/mL) in Tris buffer (pH 7.4), and the background fluorescence was recorded (excitation wavelength 580 nm, emission wavelength 620 nm). The changes in fluorescence were recorded using a Tecan Infinite M200 PRO (Tecan, San Jose, CA, USA); polymyxin B was used as a positive control. Each test was performed independently, in triplicate.

A further data set concerns E. coli ATCC 25,922. Nature of the data set: Swimming motility assay. The class given is cell-based. As to conditions: 0.3% agar; OIR3, IR3, DIR3 at 4 μM and 8 μM; GS at all tested concentrations (1–8 µM). As to the method: Figure 10 Swimming motility of E. coli ATCC 25,922 treated with OIR3, IR3, DIR3 and GS. Swim plates were prepared using 0.3% agar and inoculated from overnight cultures standardized to an optical density at 600 nm of 1.0. Images were taken after 20 h incubation at 37 °C. Data shown are the mean ± SD of three independent experiments.
Since E. coli ATCC 25,922 cell walls have flagella, their swimming motility can be measured in LB medium containing 0.3% agar. E. coli ATCC 25,922 bacteria were incubated overnight at 37 °C in a shaker until the OD600 = 1.0, then inoculated into 0.3% agar medium containing 1 µM, 2 µM, 4 µM or 8 µM of antimicrobial peptide and incubated again overnight at 37 °C. The swimming motility for each was then measured; each experiment was repeated three times.

The subject of data set [3] is TNF-α production in RAW264.7 cells. Nature of the data set: LPS-stimulated TNF-α production (ELISA). It is filed as cell-based, mouse. The protocol:
Figure 11 The inhibitory effects of OIR3, IR3, DIR3 and GS on LPS-stimulated TNF-α production in RAW264.7 cells. The levels of TNF-α in the […] were determined by ELISA using a commercial kit for mouse TNF-α. Data shown are the mean ± SD of three independent experiments.
LPS-activated inflammatory responses are always accompanied by the production of inflammatory cytokines, such as tumor necrosis factor-alpha (TNF-α). Briefly, 2 × 10^5 cells/well RAW264.7 cells were plated in 96-well plates and stimulated with LPS (100 ng/mL) in the absence or presence of the peptides (1–32 μM) for 18 h at 37 °C. The levels of TNF-α were determined using an ELISA kit (Boster, Wuhan, China) in accordance with the manufacturer’s instructions. TNF-α was measured by determining the absorbance at 540 nm.
Background: In an ELISA, binding on a coated surface is turned into a signal by an enzyme label.

Values after ≈ are worked out from the molar mass of the structure shown. Where a SMILES comes first, the peptide text is derived from it. [ ]: non-standard residue; d: D form. Orn = NCCC[C@H](N)C(=O)O

`CC(C)C[C@@H]1NC(=O)[C@H](CCCN)NC(=O)[C@H](C(C)C)NC(=O)[C@@H]2CCCN2C(=O)[C@@H](Cc2ccccc2)NC(=O)[C@H](CC(C)C)NC(=O)[C@H](CCCN)NC(=O)[C@H](C(C)C)NC(=O)[C@@H]2CCCN2C(=O)[C@@H](Cc2ccccc2)NC1=O` [GS, gramicidin S, reference compound] (cyclo(V[Orn]L[dF]PV[Orn]L[dF]P)): the MIC against S. aureus 25923 is listed as 2 µM (≈ 2.28 µg/mL); against S. aureus 29213, 2 µM (≈ 2.28 µg/mL); in data set [1], 6.1 µM (≈ 6.96 µg/mL). Besides, the “toxicity towards mammalian cells (RAW264.7)” value in the data set with RAW264.7 cells is recorded as “highly toxic”. The “combining ability with LPS” value in data set [2] (all concentrations tested (0.5–32 μM)) is “relatively low”. For the same molecule, the “inhibition of swimming motility” value in the data set with E. coli ATCC 25,922 is given as “almost no inhibition”.

Regarding `CC[C@H](C)[C@@H]1NC(=O)[C@H](CCCNC(=N)N)NC(=O)[C@H]([C@@H](C)CC)NC(=O)[C@@H]2CCCN2C(=O)[C@H](CCCNC(=N)N)NC(=O)[C@H]([C@@H](C)CC)NC(=O)[C@H](CCCNC(=N)N)NC(=O)[C@H]([C@@H](C)CC)NC(=O)[C@H](CCCNC(=N)N)NC(=O)[C@H]([C@@H](C)CC)NC(=O)[C@@H]2CCCN2C(=O)[C@H](CCCNC(=N)N)NC(=O)[C@H]([C@@H](C)CC)NC(=O)[C@H](CCCNC(=N)N)NC1=O` [OIR3] (cyclo(IRIRIRPIRIRIRP)), the figures for the MIC (in the data set with S. aureus 25923; in the data set with S. aureus 29213; in data set [1]) were 4 µM (≈ 7.24 µg/mL), 4 µM (≈ 7.24 µg/mL) and 3.5 µM (≈ 6.34 µg/mL), respectively. In data set [2] (2 μM peptide, BODIPY-TR-cadaverine displacement, LPS 25 μg/mL, Tris buffer pH 7.4), this molecule returned an LPS-binding activity of 81%. The “LPS neutralized (LPS-binding activity)” value in data set [2] (4 μM peptide, BODIPY-TR-cadaverine displacement, LPS 25 μg/mL, Tris buffer pH 7.4) is reported as 98%. Also, in the data set on E. coli ATCC 25,922, the “inhibition of swimming motility” value is recorded as “significantly inhibit”. The “inhibition of LPS-stimulated TNF-α expression” value in data set [3] was “more strongly inhibited”.
